Assay results taken from patent publication US9376376B2, “Substitute diphenylamine compounds use thereof as antitumor agents” (SINOCHEM CORPORATION, priority 2012, dated 2016).

Assays:
[1] = system: non-small cell lung cancer NCI-H358; experiment: In vitro cell inhibition assay, CCK-8 method, NCI-H358; type: cell-based, human; details: Non-small-cell carcinoma NCI-H358, CCK-8 method; read-out: The half maximal inhibitory concentration (IC50)
Description: (§1) After the cell culture flasks gently shaking, culture fluid was discarded in clean bench. […] Cells were collected and transferred to centrifuge tube. For the non-adherent cells HL-60, CCRF-CEM and MOLT-4, cell flasks were picked up from incubator and then transferred to the centrifuge tubes directly. After cells were collected using centrifuge at 1000 rpm/min for 5 min, the fluid was discarded. Then cells were washed for one time by PBS, discard fluid. Then add some medium, count cells under inverted microscope using blood cell counting plate, according the counting number to making the density of adherent cell was 1×10^5 cells/mL, the non-adherent cell was 2×10^5 cells/mL (the volumes of HL-60, CCRF-CEM, MOLT-4 are smaller than non-adherent cells, these cells added to each well was much more higher). Add 50 μL aliquots to each well of 96-well plates (the density of adherent cells was 5000 cells/well, non-adherent cells was 10000 cells/well). Blank control, Negative control, blank control with compounds and positive control wells were grouped, and three replicate wells were used for each data point in the experiments. Then the cells were cultured in 5% incubator for overnight at 37° C., Then the different concentration compounds were added to each well. […] The absorbance (A) of each well was read at 450 nm using a plate reader.

[2] = system: cervical cancer Hela; experiment: In vitro cell inhibition assay, CCK-8 method, Hela; type: cell-based, human; details: read-out: The half maximal inhibitory concentration (IC50)
Description: as §1

[3] = system: osteosarcoma MG-63; experiment: In vitro cell inhibition assay, CCK-8 method, MG-63; type: cell-based, human; details: osteosarcoma MG-63, CCK-8 method; read-out: The half maximal inhibitory concentration (IC50)
Description: as §1

[4] = system: prostate cancer PC-3; experiment: In vitro cell inhibition assay, CCK-8 method, PC-3; type: cell-based, human; details: Prostate cancer PC-3, CCK-8 method; read-out: The half maximal inhibitory concentration (IC50)
Description: as §1

[5] = system: hepatocarcinoma SK-HEP-1; experiment: In vitro cell inhibition assay, CCK-8 method, SK-HEP-1; type: cell-based, human; details: hepatocarcinoma SK-HEP-1, CCK-8 method; read-out: The half maximal inhibitory concentration (IC50)
Description: as §1

[6] = system: leukemia HL-60 cells; experiment: In vitro cell inhibition assay, CCK-8 method, HL-60; type: cell-based, human; details: for Proliferation inhibitory effect of the compounds on HL-60 cells (% of Control): CCK-8 method
Description: (§2) After the cell culture flasks gently shaking, culture fluid was discarded in clean bench. […] Cells were collected and transferred to centrifuge tube. For the non-adherent cells HL-60, CCRF-CEM and MOLT-4, cell flasks were picked up from incubator and then transferred to the centrifuge tubes directly. After cells were collected using centrifuge at 1000 rpm/min for 5 min, the fluid was discarded. Then cells were washed for one time by PBS, discard fluid. Then add some medium, count cells under inverted microscope using blood cell counting plate, according the counting number to making the density of adherent cell was 1×10^5 cells/mL, the non-adherent cell was 2×10^5 cells/mL (the volumes of HL-60, CCRF-CEM, MOLT-4 are smaller than non-adherent cells, these cells added to each well was much more higher). Add 50 μL aliquots to each well of 96-well plates (the density of adherent cells was 5000 cells/well, non-adherent cells was 10000 cells/well). Blank control, Negative control, blank control with compounds and positive control wells were grouped, and three replicate wells were used for each data point in the experiments. Then the cells were cultured in 5% incubator for overnight at 37° C., Then the different concentration compounds were added to each well. After incubation for 48 h, according to the manufacturer's instructions, CCK-8 reagent (10 μl) was added and incubation was continued for a further 2-4 h. The absorbance (A) of each well was read at 450 nm using a plate reader.

[7] = system: intracranial malignant melanoma A375; experiment: In vitro cell inhibition assay, CCK-8 method, A375; type: cell-based, human; details: melanoma A375, CCK-8 method; read-out: The half maximal inhibitory concentration (IC50)
Description: as §1

[8] = system: lung cancer A549 cell; experiment: In vitro cell inhibition assay (MTT method), A549; type: cell-based, human; details: 48 h incubation
Description: (§3) The human cancer cell lines used for this assay were lung cancer A549 and leukemia HL-60.
(§4) The A549 or HL-60 cells were picked up from cell incubator, after washed for twice using PBS, cells were digested by 0.25% trypsin, and then add medium to terminate the digestion. After cells were collected using centrifuge and re-suspended, count cells under inverted microscope and add medium to make a density was 5×10^4 cells/mL. After 100 μL aliquots were added to each well of 96-well microtiter plates, cells were cultured in 5% incubator for overnight at 37° C., then the different concentration compounds were added to each well. After incubation for 48 h, MTT solution was added to each well and plates were then incubated for 4 h. The MTT tetrazolium was reduced to formazan by living cells. Then the formazan crystals were dissolved though adding DMSO to each well. The absorbance was read at 570 nm with a microplate reader.

[9] = system: bladder cancer T24; experiment: In vitro cell inhibition assay, CCK-8 method, T24; type: cell-based, human; details: bladder cancer T24, CCK-8 method; read-out: The half maximal inhibitory concentration (IC50)
Description: as §1

[10] = system: leukemia MOLT-4; experiment: In vitro cell inhibition assay, CCK-8 method, MOLT-4; type: cell-based, human; details: leukemia MOLT-4, CCK-8 method; read-out: The half maximal inhibitory concentration (IC50)
Description: as §1

[11] = system: breast cancer MDA-MB-231; experiment: In vitro cell inhibition assay, CCK-8 method, MDA-MB-231; type: cell-based, human; details: breast cancer MDA-MB-231, CCK-8 method; read-out: The half maximal inhibitory concentration (IC50)
Description: as §1

[12] = system: prostate cancer DU-145; experiment: In vitro cell inhibition assay, CCK-8 method, DU-145; type: cell-based, human; details: Prostate cancer DU-145, CCK-8 method; read-out: The half maximal inhibitory concentration (IC50)
Description: as §1

[13] = system: leukemia HL-60 cells; experiment: In vitro cell inhibition assay (MTT method), HL-60; type: cell-based, human; details: 48 h
Description: as §3, §4

[14] = system: glioma U251; experiment: In vitro cell inhibition assay, CCK-8 method, U251; type: cell-based, human; details: glioma U251, CCK-8 method; read-out: The half maximal inhibitory concentration (IC50)
Description: as §1

[15] = system: colon cancer COLO-205; experiment: In vitro cell inhibition assay, CCK-8 method, COLO-205; details: read-out: The half maximal inhibitory concentration (IC50); Colorectal Cancer COLO-205, CCK-8 method
[16] = system: non-small cell lung cancer A549 cells; experiment: In vitro cell inhibition assay, CCK-8 method, A549; type: cell-based, human; details: for Proliferation inhibitory effect of the compounds on A549 cells (% of Control): 48 h incubation
Description: as §2

[17] = system: pancreatic cancer BXPC-3; experiment: In vitro cell inhibition assay, CCK-8 method, BXPC-3; type: cell-based, human; details: pancreatic cancer BXPC-3, CCK-8 method; read-out: The half maximal inhibitory concentration (IC50)
Description: as §1

[18] = system: leukemia CCRF-CEM; experiment: In vitro cell inhibition assay, CCK-8 method, CCRF-CEM; type: cell-based, human; details: read-out: The half maximal inhibitory concentration (IC50)
Description: as §1

[19] = system: colon cancer HT-29; experiment: In vitro cell inhibition assay, CCK-8 method, HT-29; type: cell-based, human; details: Colorectal Cancer HT-29, CCK-8 method; read-out: The half maximal inhibitory concentration (IC50)
Description: as §1

[20] = system: non-small cell lung cancer NCI-H1650; experiment: In vitro cell inhibition assay, CCK-8 method, NCI-H1650; type: cell-based, human; details: Non-small-cell carcinoma NCI-H1650, CCK-8 method; read-out: The half maximal inhibitory concentration (IC50)
Description: as §1

[21] = system: nasopharyngeal carcinoma CNE; experiment: In vitro cell inhibition assay, CCK-8 method, CNE; type: cell-based, human; details: read-out: The half maximal inhibitory concentration (IC50)
Description: as §1

## N#Cc1c(Cl)c(Cl)c(Nc2c(Cl)cc(Cl)cc2Cl)c(C#N)c1Cl [Compound 6-93]
[1]
  IC50: 443 nM
[2]
  IC50: 1510 nM
[3]
  IC50: 196 nM
[4]
  IC50: 1360 nM
[5]
  IC50: 489 nM
[6]; concentration 0.01 μM
  Proliferation inhibitory effect of the compounds on HL-60 cells (% of Control): 30.19 % of Control
[6]; concentration 0.1 μM
  Proliferation inhibitory effect of the compounds on HL-60 cells (% of Control): 44.96 % of Control
[6]; concentration 1 μM
  Proliferation inhibitory effect of the compounds on HL-60 cells (% of Control): 82.05 % of Control
[6]; concentration 10 μM
  Proliferation inhibitory effect of the compounds on HL-60 cells (% of Control): 87.80 % of Control
[6]; concentration 100 μM
  Proliferation inhibitory effect of the compounds on HL-60 cells (% of Control): 93.71 % of Control
[6]; leukemia HL-60, CCK-8 method, read-out: The half maximal inhibitory concentration (IC50)
  IC50: 85 nM
[7]
  IC50: 160 nM
[8]; 0.01 μM
  Proliferation inhibitory effect of the compounds on A549 cell (% of Control): 12.1 % of Control
[8]; 0.1 μM
  Proliferation inhibitory effect of the compounds on A549 cell (% of Control): 39.4 % of Control
[8]; 1 μM
  Proliferation inhibitory effect of the compounds on A549 cell (% of Control): 74.8 % of Control
[8]; 10 μM
  Proliferation inhibitory effect of the compounds on A549 cell (% of Control): 80.3 % of Control
[8]; 100 μM
  Proliferation inhibitory effect of the compounds on A549 cell (% of Control): 98.2 % of Control
[9]
  IC50: 603 nM
[10]
  IC50: 167 nM
[11]
  IC50: 175 nM
[12]
  IC50: 646 nM
[13]; concentration 0.01 μM
  Proliferation inhibitory effect of the compounds on HL-60 cells (% of Control): 0 % of Control
[13]; concentration 0.1 μM
  Proliferation inhibitory effect of the compounds on HL-60 cells (% of Control): 51.8 % of Control
[13]; concentration 1 μM
  Proliferation inhibitory effect of the compounds on HL-60 cells (% of Control): 70.7 % of Control
[13]; concentration 10 μM
  Proliferation inhibitory effect of the compounds on HL-60 cells (% of Control): 72.3 % of Control
[13]; concentration 100 μM
  Proliferation inhibitory effect of the compounds on HL-60 cells (% of Control): 74.8 % of Control
[14]
  IC50: 1620 nM
[15]
  IC50: 125 nM
[16]; CCK-8, 0.01 μM
  Proliferation inhibitory effect of the compounds on A549 cells (% of Control): 14.77 % of Control
[16]; CCK-8, 0.1 μM
  Proliferation inhibitory effect of the compounds on A549 cells (% of Control): 19.35 % of Control
[16]; CCK-8, 1 μM
  Proliferation inhibitory effect of the compounds on A549 cells (% of Control): 70.04 % of Control
[16]; CCK-8, 10 μM
  Proliferation inhibitory effect of the compounds on A549 cells (% of Control): 87.64 % of Control
[16]; CCK-8, 100 μM
  Proliferation inhibitory effect of the compounds on A549 cells (% of Control): 98.18 % of Control
[16]; Non-small-cell carcinoma A549, CCK-8 method, read-out: The half maximal inhibitory concentration (IC50)
  IC50: 715 nM
[17]
  IC50: 331 nM
[18]
  IC50: < 10 nM
[19]
  IC50: 224 nM
[20]
  IC50: 1370 nM
[21]
  IC50: 6.08 µM
